Measurements published in patent US20050050587A1, “Inducers of plant disease resistance” (priority 2003, published 2005).

What was measured:
Format in all cases: in vivo, Nicotiana tabacum (Xanthi nc)
[1] = test system: PR-1a protein; experiment: Induction and quantification of PR-1a protein after leaf infiltration of tobacco; details: for PR-1a induction, result in words: leaf infiltration; for PR-1a protein following treatment, 96 h / PR-1a protein following treatment, 192 h: compared to 1 mM SA at 96 h
Protocol: (§1) Tobacco (Nicotiana tabacum) plants (Xanthi nc) were grown in Promix PGX at 25 C and a 16/8 h photoperiod. Plants were fed a 1 g/L concentration of 20-20-20 (N-P-K fertilizer) twice a week. The Xanthi-nc variety carries the N-gene for resistance to TMV.
For evaluating pathogenesis-related protein induction, test compounds were dissolved in ethanol and dispersed in water (0.1% v/v ethanol). The most recently fully-expanded leaf on each plant was selected for infiltration. Infiltration was accomplished using a 5 mL disposable syringe (without needle). The solution was forced through the stomates of the abaxial surface of the leaf. Treatment solution was infiltrated into the leaf until the leaf was saturated.
All harvests were performed 96 hours after infiltration unless indicated. Briefly, treated leaves were de-veined, the remaining tissue was cut into 1 cm×1 cm pieces and vacuum-infiltrated with ice-cold extraction buffer. […] The extracellular fluid containing the acidic PR-1a protein was collected by centrifugation at 1000 g for 10 minutes at 4° C. After collection, samples were stored at −80° C. Protein concentrations of extracellular fluids were determined by Bradford dye reagent (BioRad, Richmond, Calif.) used BSA as a standard. Eight to ten μg of each protein sample were analyzed by electrophoresis on 14% Native Polyacrylamide gels (14% pre-cast Tris-Glycine gels; Invitrogen, Carlsbad, Calif.). Gels were stained with colloidal blue staining reagent (Invitrogen), and PR-1a protein was quantitated using a Model GS-710 densitometer (BioRad).

[2] = test system: tobacco mosaic virus (TMV); experiment: Resistance measurement: TMV lesion diameter after spray application; details: for Percent decrease in TMV-lesion diameter: percent reduction in the diameter of TMV lesions
Protocol: as §1
(§2) Test compounds were dissolved in ETOH and dispersed in water (0.1% v/v ethanol). Spray solutions were amended with 0.25% crop oil concentrate (v/v). Plants were sprayed to drip, and moved to a glasshouse.
After spraying, one leaf per plant was inoculated with 1.0 ug TMV (U1; vulgare strain) at the times indicated. Six days post-inoculation, leaves were removed and the diameters of 20 necrotic lesions were measured per leaf. The mean lesion diameters from at least four plants per treatment were measured. Lesion diameter measures were subjected to two way analysis of variance (ANOVA) and Duncan's multiple range procedure at p=0.05.

[3] = test system: PR-1a protein; experiment: Induction of PR-1a protein in Xanthi-nc tobacco after spray application; details: which equals 1
Protocol: Tobacco (Nicotiana tabacum) plants (Xanthi nc) were grown in Promix PGX at 25 C and a 16/8 h photoperiod. Plants were fed a 1 g/L concentration of 20-20-20 (N-P-K fertilizer) twice a week. The Xanthi-nc variety carries the N-gene for resistance to TMV. Plants were treated with chemicals and/or virus at 5-6 weeks after sowing, when they had 5-7 fully-expanded leaves.
Proteins were harvested by the method of Yalpani et al. (1991; Plant Cell. 3:809-818). All harvests were performed 96 hours after infiltration unless indicated. Briefly, treated leaves were de-veined, the remaining tissue was cut into 1 cm×1 cm pieces and vacuum-infiltrated with ice-cold extraction buffer. Leaf tissue was blotted to remove excess buffer, and placed in a spin column assembly (Yalpani et al., 1991). The extracellular fluid containing the acidic PR-1a protein was collected by centrifugation at 1000 g for 10 minutes at 4° C. After collection, samples were stored at −80° C. Protein concentrations of extracellular fluids were determined by Bradford dye reagent (BioRad, Richmond, Calif.) used BSA as a standard. Eight to ten μg of each protein sample were analyzed by electrophoresis on 14% Native Polyacrylamide gels (14% pre-cast Tris-Glycine gels; Invitrogen, Carlsbad, Calif.). Gels were stained with colloidal blue staining reagent (Invitrogen), and PR-1a protein was quantitated using a Model GS-710 densitometer (BioRad).
as §2

[4] = 1 mM spray 48 h before TMV inoculation
[5] = 1 mM spray 96 h before TMV inoculation

O=C(O)c1ccccc1F [2-Fluorobenzoic acid]
PR-1a induction, result in words [1]: significantly reduced activity

O=C(O)c1c(O)c(Cl)cc(Cl)c1Cl [3,5,6-Trichlorosalicylic acid]
Percent decrease in TMV-lesion diameter [2]: 45.1%

O=C(O)c1c(O)c(Cl)cc(Cl)c1O [3,5-Dichloro-6-hydroxysalicylic acid]
Percent decrease in TMV-lesion diameter [2]: 48.3%

O=C(O)c1cc(Cl)cc(Cl)c1O [3,5-Dichlorosalicylic acid, reference compound]
PR-1a protein following treatment, 96 h ([1]; 1 mM, which equals 1): 1.83 | PR-1a protein following treatment, 192 h ([1]; 1 mM, which equals 1): 4.66 | PR-1a induction, result in words [1]: showed the greatest induction of PR-1a | Percent decrease in TMV-lesion diameter [2]: 36.6%

O=C(O)c1cc(F)cc(F)c1O [3,5-Difluorosalicylic acid]
PR-1a protein following treatment, 96 h ([1]; 1 mM, which equals 1): 3.64 | PR-1a protein following treatment, 192 h ([1]; 1 mM, which equals 1): 3.21 | PR-1a induction, result in words [1]: more induction at 96 hours than the corresponding chlorinated salicylates | Lesion diameter [2, 4]: 2.04 AB mm | Lesion diameter [2, 5]: 1.85 A mm | Percent decrease in TMV-lesion diameter [2]: 55.0% | Reduction of TMV-lesion size / resistance to TMV, result in words ([2]; spray application): statistically equal to that induced by 5 mM Salicylic acid

O=C(O)c1cc([N+](=O)[O-])cc([N+](=O)[O-])c1O [3,5-Dinitrosalicylic acid]
Mean PR Induction (relative induction of PR-1a protein) ([1]; 1 mM, 96 h post infiltration, compared to 1 mM SA, which equals 1): 0 | PR-1a induction, result in words [1]: completely deactivated

O=C(O)c1cc(F)cc(Cl)c1O [3-Chloro-5-fluorosalicylic acid]
Percent decrease in TMV-lesion diameter [2]: 34%

O=C(O)c1cccc(Cl)c1O [3-Chlorosalicylic acid]
Percent decrease in TMV-lesion diameter [2]: 55.1%

O=C(O)c1cc(Cl)cc(F)c1O [3-Fluoro-5-chlorosalicylic acid]
Percent decrease in TMV-lesion diameter [2]: 47.4%

O=C(O)c1cccc(F)c1O [3-Fluorosalicylic acid]
Percent decrease in TMV-lesion diameter [2]: 34.4%

O=C(O)c1ncccc1O [3-Hydroxypicolinic acid]
PR-1a induction, result in words [1]: induced PR-1a accumulation more than equimolar SA

COc1cccc(C(=O)O)c1O [3-Methoxysalicylic acid]
Percent decrease in TMV-lesion diameter [2]: 8.9%

O=C(O)c1cccc([N+](=O)[O-])c1O [3-Nitrosalicylic acid]
PR-1a induction, result in words [1]: decreased activity

Nc1ccc(C(=O)O)c(O)c1 [4-Aminosalicylic acid]
Percent decrease in TMV-lesion diameter [2]: 22.9%

O=C(O)c1ccc(Cl)cc1O [4-Chlorosalicylic acid, reference compound]
Percent decrease in TMV-lesion diameter [2]: 30.2%

O=C(O)c1ccc(F)cc1O [4-Fluorosalicylic acid]
Percent decrease in TMV-lesion diameter [2]: 36.2%

COc1ccc(C(=O)O)c(O)c1 [4-Methoxysalicylic acid]
Percent decrease in TMV-lesion diameter [2]: 17.6%

O=C(O)c1cc(Cl)ccc1O [5-Chlorosalicylic acid, reference compound]
PR-1a protein following treatment, 96 h ([1]; 1 mM, which equals 1): 1.02 | PR-1a protein following treatment, 192 h ([1]; 1 mM, which equals 1): 1.75 | Percent decrease in TMV-lesion diameter [2]: 38.7%

O=C(O)c1cc(F)ccc1O [5-Fluorosalicylic acid]
PR-1a protein following treatment, 96 h ([1]; 1 mM, which equals 1): 1.30 | PR-1a protein following treatment, 192 h ([1]; 1 mM, which equals 1): 1.74 | PR-1a induction, result in words [1]: more induction at 96 hours than the corresponding chlorinated salicylates | Percent decrease in TMV-lesion diameter [2]: 38.0%

COc1ccc(O)c(C(=O)O)c1 [5-Methoxysalicylic acid]
Percent decrease in TMV-lesion diameter [2]: 9.7%

O=C(O)c1cc([N+](=O)[O-])ccc1O [5-Nitrosalicylic acid]
PR-1a induction, result in words [1]: decreased activity

O=C(O)c1c(O)cccc1F [6-Fluorosalicylic acid]
Percent decrease in TMV-lesion diameter [2]: 24.3%

COc1cccc(O)c1C(=O)O [6-Methoxysalicylic acid]
Percent decrease in TMV-lesion diameter [2]: 13.3%

O=C(O)c1ccccc1 [Benzoic acid]
PR-1a induction, result in words [1]: unable to induce PR-1a accumulation

CCOC(=O)C(C)OC(=O)c1cc(Oc2ccc(C(F)(F)F)cc2Cl)ccc1[N+](=O)[O-] (centres unmarked) [Lactofen, 1-(carboxyethoxy) ethyl 5-[2-chloro-4-(tri-fluoromethyl)phenoxy]-2-nitrobenzoate]
PR-1a (relative induction) ([3]; 290 ppm Lactofen, harvested 96 hours after spray application, compared to 1 mM SA): 0.44 | PR-1a (relative induction) ([3]; 1450 ppm Lactofen, harvested 96 hours after spray application, compared to 1 mM SA): 2.00

O=C([O-])c1ccccc1O.[Na+] [NaSA, sodium salicylate]
Lesion diameter ([2]; NaSA 1600 mg/l, 48 hours after application): 1.17 B mm | Lesion diameter ([2]; NaSA 1600 mg/l, 96 hours after application): 1.75 AB mm | PR-1a (relative induction) ([3]; 1600 ppm NaSA, harvested 96 hours after spray application, compared to 1 mM SA): 1.00 | PR-1a (relative induction) ([3]; 8000 ppm NaSA, harvested 96 hours after spray application, compared to 1 mM SA): 4.56 | PR-1a (relative induction) ([3]; NaSA 1600 mg/l, 48 hours after application, compared to infiltration with 1 mM SA at 96 h): 0.34 | PR-1a (relative induction) ([3]; NaSA 1600 mg/l, 96 hours after application, compared to infiltration with 1 mM SA at 96 h): 1.02

O=C(O)c1ccccc1O [Salicylic acid, reference compound]
PR-1a protein following treatment, 96 h ([1]; 1 mM, which equals 1): 1.00 | PR-1a protein following treatment, 192 h ([1]; 1 mM, which equals 1): 1.46 | Lesion diameter [2, 4]: 2.20 BC mm | Lesion diameter [2, 5]: 2.52 B mm | Lesion diameter ([2]; 5 mM spray 48 h before TMV inoculation): 1.88 A mm | Lesion diameter ([2]; 5 mM spray 96 h before TMV inoculation): 1.68 A mm

O=C(O)c1ccccc1S [Thiosalicylic acid]
PR-1a induction, result in words [1]: significantly reduced activity

Salicylic acid/Sodiumsalicylate [reference compound]
Mean PR Protein Induction ([1]; 1 mM, 96 h post infiltration, compared to 1 mM SA, which equals 1 (Table 5)): 1.0 | Percent decrease in TMV-lesion diameter [2]: 30.1%
